# Test results as given in US20150094364A1, “METHOD OF USING THEAFLAVIN” (priority 2013, published 2015).
# Where “and” joins values, the source holds several entries; their conditions need not be identical. Equal values may be shown once.
# Columns and labels:
# Type in all cases: in vivo, Wistar rats
# [1] = Body weight, liver weight and liver/body ratio in ethanol-fed rats (ALD model); conditions: ethanol 6000 mg/kg BW per day; for Liver Weight / Liver body ratio: 30 days; for BW (ending): end of 30-day study
# Experimental: (§1) 6-week old male rats (Wistar rats) were stabilized and then divided into 5 groups with 10 rats per group (n=10). Rats overdosed with ethanol were used as an experimental model for human ALD. Four groups of rats were fed with ethanol at a dose of 6000 mg/kg BW (50% ethanol at 12 ml/kg BW) per day for 30 days. These four groups were divided into positive control, theaflavin (low), theaflavin (mid), and theaflavin (high). Theaflavin (capsule, Xiayie) was also fed to rat at a dose of 83 mg/kg BW (low), 250 mg/kg (mid), and 500 mg/kg (high). In addition, Fifth group was fed with water as a negative control. Animals were sacrificed after the 30-day study and livers were collected for further analyses.
# [2] = tested on: Rats overdosed with ethanol (experimental model for human ALD); test: Liver markers MDA, GSH and TG in ethanol-fed rats (ALD model); conditions: for GSH / MDA / TG: rat liver, ethanol 30 days
# Experimental: as §1
# Three liver markers, i.e., malondialdehyde (MDA, a marker of oxidative stress), glutathione (GSH), and triglyceride (TG) were measured.
# [3] = tested on: Rats overdosed with ethanol (experimental model for human ALD); test: Liver histopathology (liver cell fat rating, fat color rating) in ethanol-fed rats (ALD model); parameters: Liver cell fat rating / Liver cell fat rating, sum / Fat color rating: scale not given here; conditions: for Fat color rating: n=10; for Liver cell fat rating: individual animals (ID 1-10); for Liver cell fat rating, sum: sum of 10 animals
# Experimental: as §1
smiles,measurement,setting,value
"O=c1c(O)cc([C@H]2Oc3cc(O)cc(O)c3C[C@H]2O)cc2c([C@H]3Oc4cc(O)cc(O)c4C[C@H]3O)cc(O)c(O)c12 [Theaflavin, theaflavin]",Liver Weight,[1]; 83 mg/kg BW theaflavin,9.19 ± 0.88 g
same,Liver body ratio,[1]; 83 mg/kg BW theaflavin,2.79 ± 0.22%
same,BW (ending),[1]; 83 mg/kg BW theaflavin,329.1 ± 19.17 g
same,BW (intermediate),[1]; 83 mg/kg BW theaflavin,256.1 ± 21.23 g
same,Liver Weight,[1]; 250 mg/kg BW theaflavin,9.83 ± 1.12 g
same,Liver body ratio,[1]; 250 mg/kg BW theaflavin,2.86 ± 0.23%
same,BW (ending),[1]; 250 mg/kg BW theaflavin,342.9 ± 21.99 g
same,BW (intermediate),[1]; 250 mg/kg BW theaflavin,266.3 ± 17.10 g
same,Liver Weight,[1]; 500 mg/kg BW theaflavin,10.34 ± 1.32 g
same,Liver body ratio,[1]; 500 mg/kg BW theaflavin,2.84 ± 0.27%
same,BW (ending),[1]; 500 mg/kg BW theaflavin,365.2 ± 44.39 g
same,BW (intermediate),[1]; 500 mg/kg BW theaflavin,272.3 ± 17.27 g
same,GSH,[2]; 83 mg/kg BW theaflavin,13.86 ± 1.80 mg/g
same,MDA,[2]; 83 mg/kg BW theaflavin,1.32 ± 0.13 nmol/mg
same,TG,[2]; 83 mg/kg BW theaflavin,0.62 ± 0.21 mmol/L
same,GSH,[2]; 250 mg/kg BW theaflavin,13.91 ± 1.66 mg/g
same,MDA,[2]; 250 mg/kg BW theaflavin,1.24 ± 0.49 nmol/mg
same,TG,[2]; 250 mg/kg BW theaflavin,0.65 ± 0.14 mmol/L
same,GSH,[2]; 500 mg/kg BW theaflavin,14.43 ± 0.69 mg/g
same,MDA,[2]; 500 mg/kg BW theaflavin,1.23 ± 0.08 nmol/mg
same,TG,[2]; 500 mg/kg BW theaflavin,0.64 ± 0.13 mmol/L
same,MDA when compared to positive controls,[2]; theaflavin (high) 500 mg/kg,lower
same,TG when compared to positive controls,[2]; theaflavin (high) 500 mg/kg,lower
same,MDA when compared to positive controls,[2]; theaflavin (mid) 250 mg/kg,lower
same,TG when compared to positive controls,[2]; theaflavin (mid) 250 mg/kg,lower
same,Fat color rating,[3]; 83 mg/kg BW theaflavin,1.60 ± 0.70
same,Fat color rating,[3]; 250 mg/kg BW theaflavin,1.40 ± 0.70
same,Fat color rating,[3]; 500 mg/kg BW theaflavin,1.30 ± 0.82
same,Liver cell fat rating,"[3]; theaflavin (high) 500 mg/kg, 500 mg/kg",1 (6×) and 0 and 3 and 2 (2×)
same,Liver cell fat rating,"[3]; theaflavin (low) 83 mg/kg BW, 83 mg/kg",1 (5×) and 3 and 2 (4×)
same,Liver cell fat rating,"[3]; theaflavin (mid) 250 mg/kg, 250 mg/kg",1 (4×) and 0 and 2 (5×)
same,"Liver cell fat rating, sum",[3]; theaflavin (high) 500 mg/kg,13
same,"Liver cell fat rating, sum",[3]; theaflavin (low) 83 mg/kg BW,16
same,"Liver cell fat rating, sum",[3]; theaflavin (mid) 250 mg/kg,14
same,Fat color rating compared to positive control,[3]; theaflavin (high) 500 mg/kg,different readings
same,Liver cell fat rating compared to positive control,[3]; theaflavin (high) 500 mg/kg,different readings
same,Fat color rating compared to positive control,[3]; theaflavin (mid) 250 mg/kg,different readings
same,Liver cell fat rating compared to positive control,[3]; theaflavin (mid) 250 mg/kg,different readings
